Data from ChEMBL document CHEMBL1201862, “PubChem BioAssay data set” (2004).
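Briefly, cells in 96-well plates were exposed to five compound concentrations for 48 h, and endpoints were estimated by linear interpolation. Here, GI50 denotes the concentration required for 50% inhibition of growth.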 Activity calls are given as the source filed them. No stated cut-off is given here; in the data, active = GI50 up to about 1.1 µM and inactive = higher.

How the values were obtained:
Assay in all cases: NCI anticancer screen, dose series, 48 h
[1] = system: TK-10
[2] = system: SR
[3] = system: K562
[4] = system: SF-539
[5] = system: NCI-H226
[6] = system: MDA-MB-435
[7] = system: BT-549
[8] = system: KM12
[9] = system: CAKI-1
[10] = system: UO-31
[11] = system: SK-MEL-5
[12] = system: MOLT-4
[13] = system: U-251
[14] = system: HL-60
[15] = system: LOX IMVI
[16] = system: SK-OV-3
[17] = system: A549
[18] = system: OVCAR-3
[19] = system: RPMI-8226
[20] = system: HOP-92

Measured: GI50

c1nnc(NCNc2nncs2)s1
inactive: [1] 86.9 µM | [2] 36.8 µM | [3] 42.8 µM | [4] 31 µM | [5] > 100 µM | [6] 28.6 µM | [7] > 100 µM | [8] 50.1 µM | [9] 9.48 µM | [10] 53.3 µM | [11] 62.2 µM | [12] 29.6 µM | [13] 50 µM | [14] 46.3 µM | [15] 32.7 µM | [16] 23.7 µM | [17] 23.6 µM | [18] 21.5 µM | [19] 72.6 µM | [20] > 100 µM

O=C(Nc1ccc2ccccc2c1)Nn1cnnc1
inactive: [1] > 100 µM | [2] > 100 µM | [3] > 100 µM | [4] > 100 µM | [5] 35.3 µM | [6] > 100 µM | [7] > 100 µM | [8] > 100 µM | [9] > 100 µM | [10] 80.4 µM | [11] > 100 µM | [12] > 100 µM | [13] > 100 µM | [14] > 100 µM | [15] > 100 µM | [16] > 100 µM | [17] > 100 µM | [18] > 100 µM | [19] > 100 µM | [20] > 100 µM

Cc1cc(NS(=O)(=O)c2ccc(NC(=O)c3ccc4nc5ccccc5c(Nc5ccc(S(=O)(=O)N=C(N)N)cc5)c4c3)cc2)no1
inactive: [1] 25.5 µM | [2] 18.3 µM | [3] 10.6 µM | [4] 20.8 µM | [5] 14.2 µM | [6] 19.9 µM | [7] 20.6 µM | [8] 17.1 µM | [9] 18.9 µM | [10] 17.2 µM | [11] 16.2 µM | [12] 17.1 µM | [13] 16.2 µM | [14] 17.5 µM | [15] 9.46 µM | [16] 23.3 µM | [17] 16.9 µM | [18] 17.7 µM | [19] 23.7 µM | [20] 14.7 µM

COc1cccc2ccc3c(c12)C(=O)OC31CCc2c(C)cccc21 (stereo not given)
inactive: [1] 23.1 µM | [2] 7.16 µM | [3] 7.91 µM | [4] 31.3 µM | [5] 12 µM | [6] 20.4 µM | [7] > 100 µM | [8] 23.7 µM | [9] 7.26 µM | [10] 9.16 µM | [11] 10.2 µM | [12] 13.2 µM | [13] 23.2 µM | [14] 8.59 µM | [15] 14.2 µM | [16] > 46.5 µM | [17] 17.1 µM | [18] 10.3 µM | [19] 6.87 µM | [20] 11.2 µM

Cc1cc(N(CCC#N)CCC#N)ccc1/C=N/NC(=O)c1ccccc1
inactive: [1] 48.3 µM | [2] 1.34 µM | [3] 3.76 µM | [4] 7.76 µM | [5] 20.2 µM | [6] 2.42 µM | [7] 42.7 µM | [8] 3.54 µM | [9] 23.1 µM | [10] > 62.1 µM | [11] 22 µM | [12] 24.3 µM | [13] 22.5 µM | [14] 4.17 µM | [15] 8.02 µM | [16] 18.5 µM | [17] 24.4 µM | [18] 15 µM | [19] 58.1 µM | [20] 76.4 µM

COc1ccc2[nH]c3c(c2c1)COc1ccccc1C3=O
inactive: [1] > 100 µM | [2] > 100 µM | [3] > 100 µM | [4] 89.1 µM | [5] > 100 µM | [6] 25.4 µM | [7] 37.1 µM | [8] > 100 µM | [9] > 100 µM | [10] > 100 µM | [11] > 100 µM | [12] > 100 µM | [13] > 100 µM | [14] > 100 µM | [15] > 100 µM | [16] > 100 µM | [17] > 100 µM | [18] > 100 µM | [19] > 100 µM | [20] > 100 µM

O=C1c2cccc3cc([N+](=O)[O-])cc(c23)C(=O)N1Nc1ccc([N+](=O)[O-])cc1[N+](=O)[O-]
inactive: [1] 31.8 µM | [2] 2.64 µM | [3] 4.29 µM | [4] 10.6 µM | [5] 14.5 µM | [6] 20.2 µM | [7] 19.4 µM | [8] 14.6 µM | [9] 15.1 µM | [10] 12.1 µM | [11] 13 µM | [12] 1.97 µM | [13] 13.3 µM | [14] 4.23 µM | [15] 10.5 µM | [16] > 31.6 µM | [17] 16.3 µM | [18] 22.3 µM | [19] 12.8 µM | [20] 17.9 µM
